From ChEMBL document CHEMBL1909046, “DrugMatrix in vitro pharmacology data”

Experiments:
[1] = molecular target: Aldo-keto reductase family 1 member B1 (Rattus norvegicus, UniProt P07943); assay type: tissue-based, Lens of camera-type eye;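 also: inhibition of aldose reductase enzyme activity, measured with DL-glyceraldehyde as the substrate; in other assays of this panel Not Active means under 50% inhibition at 10 µM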
[2] = molecular target: T1, Alpha-2A adrenergic receptor (Homo sapiens, UniProt P08913); assay type: cell membranes, Sf9, Membrane; details: sf9; also: in other assays of this panel Not Active means under 50% inhibition at 10 µM
T1 sequence (P08913 whole entry): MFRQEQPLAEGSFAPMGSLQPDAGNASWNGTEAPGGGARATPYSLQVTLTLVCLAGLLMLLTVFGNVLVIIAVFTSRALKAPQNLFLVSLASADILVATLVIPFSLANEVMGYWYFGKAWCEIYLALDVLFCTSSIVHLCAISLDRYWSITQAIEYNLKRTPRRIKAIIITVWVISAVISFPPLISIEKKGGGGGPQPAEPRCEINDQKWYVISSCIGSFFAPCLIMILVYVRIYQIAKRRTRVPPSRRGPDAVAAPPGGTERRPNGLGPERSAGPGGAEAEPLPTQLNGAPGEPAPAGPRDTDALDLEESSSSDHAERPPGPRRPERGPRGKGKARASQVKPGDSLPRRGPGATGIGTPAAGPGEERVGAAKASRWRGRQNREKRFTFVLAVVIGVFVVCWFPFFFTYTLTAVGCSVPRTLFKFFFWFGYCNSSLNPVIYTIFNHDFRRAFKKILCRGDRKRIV

[3] = DRUGMATRIX: GABAA, Chloride Channel, TBOB radioligand binding (ligand: [3H] TBOB); assay type: cell membranes, Rattus norvegicus, Wistar, Cerebral cortex, Membrane; details: Not Active = under 50% inhibition at 10 µM
[4] = molecular target: T2, Nitric oxide synthase, inducible (Mus musculus, UniProt P29477); parameters: species or system Escherichia coli;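 also: inhibition of iNOS enzyme activity measured with L-arginine as substrate; in other assays of this panel Not Active means under 50% inhibition at 10 µM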
T2 sequence (P29477 whole entry): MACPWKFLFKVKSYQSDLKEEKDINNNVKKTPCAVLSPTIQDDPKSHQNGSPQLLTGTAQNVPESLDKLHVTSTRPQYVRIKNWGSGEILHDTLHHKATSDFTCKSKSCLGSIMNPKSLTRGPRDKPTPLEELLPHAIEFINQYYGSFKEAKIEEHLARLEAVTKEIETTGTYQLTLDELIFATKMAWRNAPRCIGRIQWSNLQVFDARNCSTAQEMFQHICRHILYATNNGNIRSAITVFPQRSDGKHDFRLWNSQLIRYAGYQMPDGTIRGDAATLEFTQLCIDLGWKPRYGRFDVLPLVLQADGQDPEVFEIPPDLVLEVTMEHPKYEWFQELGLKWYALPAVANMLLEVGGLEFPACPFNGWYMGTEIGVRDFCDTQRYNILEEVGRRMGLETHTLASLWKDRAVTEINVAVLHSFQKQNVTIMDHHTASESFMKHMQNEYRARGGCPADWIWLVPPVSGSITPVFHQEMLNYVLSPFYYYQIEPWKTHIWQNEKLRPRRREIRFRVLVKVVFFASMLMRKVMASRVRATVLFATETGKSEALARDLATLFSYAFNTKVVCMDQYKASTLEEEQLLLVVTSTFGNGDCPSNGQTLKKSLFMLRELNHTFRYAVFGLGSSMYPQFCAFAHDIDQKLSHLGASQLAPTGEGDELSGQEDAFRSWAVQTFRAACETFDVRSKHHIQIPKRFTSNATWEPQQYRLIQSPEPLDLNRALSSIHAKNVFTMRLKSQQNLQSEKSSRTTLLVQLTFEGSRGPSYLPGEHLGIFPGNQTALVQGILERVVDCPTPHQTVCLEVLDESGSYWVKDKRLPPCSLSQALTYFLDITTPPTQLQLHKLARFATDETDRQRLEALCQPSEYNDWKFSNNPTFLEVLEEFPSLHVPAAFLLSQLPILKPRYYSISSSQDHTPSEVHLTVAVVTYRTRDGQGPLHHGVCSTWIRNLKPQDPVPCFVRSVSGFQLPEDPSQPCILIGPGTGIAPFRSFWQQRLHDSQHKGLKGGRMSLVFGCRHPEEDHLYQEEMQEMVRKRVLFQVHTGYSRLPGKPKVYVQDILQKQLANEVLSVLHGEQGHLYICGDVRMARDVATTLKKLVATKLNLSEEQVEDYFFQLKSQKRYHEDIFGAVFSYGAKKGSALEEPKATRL

[5] = DRUGMATRIX: Potassium Channel [KATP] radioligand binding (ligand: [3H] Glyburide); assay type: cell membranes, Membrane; details: hit-t15; Not Active = under 50% inhibition at 10 µM
[6] = molecular target: Melanocortin receptor 4 (Homo sapiens, UniProt P32245); assay type: cell membranes, Membrane; details: hek293; also: in other assays of this panel Not Active means under 50% inhibition at 10 µM
Melanocortin receptor 4, sequence (P32245 whole entry): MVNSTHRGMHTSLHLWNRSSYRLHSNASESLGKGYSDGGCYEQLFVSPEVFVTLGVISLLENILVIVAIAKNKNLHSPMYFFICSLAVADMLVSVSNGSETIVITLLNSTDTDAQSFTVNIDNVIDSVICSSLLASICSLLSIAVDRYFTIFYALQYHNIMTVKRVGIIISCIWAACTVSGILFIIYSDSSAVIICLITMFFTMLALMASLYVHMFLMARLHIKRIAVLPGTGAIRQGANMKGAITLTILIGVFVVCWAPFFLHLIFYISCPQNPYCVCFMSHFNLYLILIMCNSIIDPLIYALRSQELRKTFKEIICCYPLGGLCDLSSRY

[7] = molecular target: T3, 5-hydroxytryptamine receptor 1A (Rattus norvegicus, UniProt P19327); assay type: cell membranes, CHO-K1, Membrane; also: in other assays of this panel Not Active means under 50% inhibition at 10 µM
T3 sequence (P19327 whole entry): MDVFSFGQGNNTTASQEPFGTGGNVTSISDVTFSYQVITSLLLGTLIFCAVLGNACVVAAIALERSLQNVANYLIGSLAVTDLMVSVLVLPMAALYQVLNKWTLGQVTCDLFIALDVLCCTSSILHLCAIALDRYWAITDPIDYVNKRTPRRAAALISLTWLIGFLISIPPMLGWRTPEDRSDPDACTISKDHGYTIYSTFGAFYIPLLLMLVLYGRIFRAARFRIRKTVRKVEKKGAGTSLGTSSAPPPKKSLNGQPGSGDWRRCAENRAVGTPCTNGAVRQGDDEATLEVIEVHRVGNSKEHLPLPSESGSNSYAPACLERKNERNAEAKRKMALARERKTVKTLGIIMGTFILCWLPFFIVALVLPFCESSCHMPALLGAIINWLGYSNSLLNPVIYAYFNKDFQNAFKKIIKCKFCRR

[8] = DRUGMATRIX: Interleukin IL-1 radioligand binding (ligand: [125I] interleukin 1beta); assay type: cell membranes, Membrane; details: nih3t3; Not Active = under 50% inhibition at 10 µM
[9] = molecular target: Vascular endothelial growth factor receptor 1 (Homo sapiens, UniProt P17948); assay type: cell-based; details: huvec; also: in other assays of this panel Not Active means under 50% inhibition at 10 µM
Vascular endothelial growth factor receptor 1, sequence (P17948 whole entry): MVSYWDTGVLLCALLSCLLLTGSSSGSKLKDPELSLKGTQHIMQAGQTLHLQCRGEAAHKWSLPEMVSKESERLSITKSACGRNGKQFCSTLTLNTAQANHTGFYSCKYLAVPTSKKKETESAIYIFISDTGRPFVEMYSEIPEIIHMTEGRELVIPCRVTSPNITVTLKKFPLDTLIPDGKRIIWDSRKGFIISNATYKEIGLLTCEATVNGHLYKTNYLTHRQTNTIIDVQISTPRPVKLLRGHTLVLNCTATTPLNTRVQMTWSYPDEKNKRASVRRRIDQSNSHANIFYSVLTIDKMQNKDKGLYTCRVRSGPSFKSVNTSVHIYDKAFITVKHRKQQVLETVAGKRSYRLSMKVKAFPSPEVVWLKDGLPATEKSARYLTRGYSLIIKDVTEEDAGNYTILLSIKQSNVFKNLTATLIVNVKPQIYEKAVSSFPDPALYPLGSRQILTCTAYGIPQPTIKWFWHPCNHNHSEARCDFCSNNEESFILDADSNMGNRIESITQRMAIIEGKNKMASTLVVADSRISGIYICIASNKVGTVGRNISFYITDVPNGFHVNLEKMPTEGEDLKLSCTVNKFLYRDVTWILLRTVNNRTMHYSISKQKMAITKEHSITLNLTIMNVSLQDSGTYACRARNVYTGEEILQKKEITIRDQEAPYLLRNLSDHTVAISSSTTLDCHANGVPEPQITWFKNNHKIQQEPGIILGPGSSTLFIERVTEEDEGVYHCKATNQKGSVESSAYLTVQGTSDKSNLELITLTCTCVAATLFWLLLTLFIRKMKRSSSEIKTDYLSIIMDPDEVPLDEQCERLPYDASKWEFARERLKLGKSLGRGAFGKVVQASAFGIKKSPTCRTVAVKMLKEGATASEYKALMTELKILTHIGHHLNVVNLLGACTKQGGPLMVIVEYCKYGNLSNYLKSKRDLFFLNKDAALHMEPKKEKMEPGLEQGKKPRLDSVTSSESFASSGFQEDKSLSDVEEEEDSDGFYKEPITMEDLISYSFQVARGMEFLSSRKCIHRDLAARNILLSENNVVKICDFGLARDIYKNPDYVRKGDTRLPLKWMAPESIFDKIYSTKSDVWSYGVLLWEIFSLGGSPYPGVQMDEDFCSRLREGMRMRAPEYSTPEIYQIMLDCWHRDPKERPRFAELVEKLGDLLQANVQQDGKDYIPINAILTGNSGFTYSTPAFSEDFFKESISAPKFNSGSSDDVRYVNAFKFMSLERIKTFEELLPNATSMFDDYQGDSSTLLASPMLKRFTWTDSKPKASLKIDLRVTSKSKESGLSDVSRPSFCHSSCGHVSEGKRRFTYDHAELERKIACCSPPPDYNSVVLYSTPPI

[10] = molecular target: T4, Cathepsin G (Homo sapiens, UniProt P08311); assay type: tissue-based; details: neutrophil
T4 sequence (P08311 whole entry): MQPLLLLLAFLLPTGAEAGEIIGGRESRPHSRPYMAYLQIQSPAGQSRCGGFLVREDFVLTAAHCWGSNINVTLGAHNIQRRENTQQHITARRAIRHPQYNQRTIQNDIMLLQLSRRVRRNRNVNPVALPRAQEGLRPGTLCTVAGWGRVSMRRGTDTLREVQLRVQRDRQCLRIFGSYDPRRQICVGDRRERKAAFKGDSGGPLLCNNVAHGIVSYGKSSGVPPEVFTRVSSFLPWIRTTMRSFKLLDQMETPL

[11] = DRUGMATRIX: Phosphodiesterase PDE3 enzyme inhibition (substrate: [3H]cAMP + cAMP); assay type: tissue-based, Homo sapiens; details: platelet; Not Active = under 50% inhibition at 10 µM

| Compound | IC50 [1] | IC50 [2] | IC50 [3] | Ki [3] | IC50 [4] | IC50 [5] | Ki [5] | IC50 [6] | IC50 ([7]; cho-k1) | IC50 [8] | Ki [8] | IC50 [9] | IC50 [10] | IC50 [11] | Ki [11] | IC50 ([7]; read-out: IC50) [nM] | Ki ([7]; read-out: Ki) [nM] |
| --- | --- | --- | --- | --- | --- | --- | --- | --- | --- | --- | --- | --- | --- | --- | --- | --- | --- |
| Oc1c(I)cc(I)c2cccnc12 [IODOQUINOL] | Not Active | Not Active | Not Active | Not Active | Not Active | Not Active | Not Active | Not Active | Not Active | Not Active | Not Active | Not Active | Not Active | Not Active | Not Active |  |  |
| NNC(=O)c1ccncc1 [ISONIAZID] | Not Active | Not Active | Not Active | Not Active | Not Active | Not Active | Not Active | Not Active | Not Active | Not Active | Not Active | Not Active | Not Active | Not Active | Not Active |  |  |
| CC1=C(/C=C/C(C)=C/C=C/C(C)=C\C(=O)O)C(C)(C)CCC1 [ISOTRETINOIN] | Not Active | Not Active | Not Active | Not Active | Not Active | Not Active | Not Active | Not Active | Not Active | Not Active | Not Active | Not Active | Not Active | Not Active | Not Active |  |  |
| CO[C@@H]1[C@@H](O[C@@H]2O[C@H](C)[C@@H](O[C@H]3C[C@@](C)(O)[C@@H](OC(=O)CC(C)C)[C@H](C)O3)[C@H](N(C)C)[C@H]2O)[C@@H](CC=O)C[C@@H](C)[C@@H](O)/C=C/C=C/C[C@@H](C)OC(=O)C[C@H]1O [KITASAMYCIN] | Not Active | Not Active | Not Active | Not Active | Not Active | Not Active | Not Active | Not Active | Not Active | Not Active | Not Active | Not Active | Not Active | Not Active | Not Active |  |  |
| CC(CCc1ccccc1)NCC(O)c1ccc(O)c(C(N)=O)c1 (stereo unspecified) [LABETALOL] | Not Active | Not Active | Not Active | Not Active | Not Active | Not Active | Not Active | Not Active |  | Not Active | Not Active | Not Active | Not Active | Not Active | Not Active | 393 | 225 |
| Nc1nnc(-c2cccc(Cl)c2Cl)c(N)n1 [LAMOTRIGINE] | Not Active | Not Active | Not Active | Not Active | Not Active | Not Active | Not Active | Not Active | Not Active | Not Active | Not Active | Not Active | Not Active | Not Active | Not Active |  |  |
